In the experiment the test system is SARS-CoV-2, USA-WA1/2020. Description: Antiviral assay: inhibition of SARS-CoV-2 cytopathic effect, neutral red. The experiment is classed as cell-based. Particulars: Severe acute respiratory syndrome coronavirus 2; Vero 76 cells, CPE inhibition by 50%, neutral red; i) and ii) are separate determinations; read-out: Anti-viral Assay (EC50).

The record followed here is US11279727B2, “Anti-viral compounds and methods of use” (Metro International Biotech, LLC, priority 2020, dated 2022).

As to `N#C[C@@]1(c2ccc3c(N)ncnn23)O[C@H](CO)[C@@H](O)[C@H]1O` [GS-441524], the 50% effective concentration (EC50) lay in the range of 500 to 1100 nM.
